According to patent US5128244A, “Assay for dioxins” (Wisconsin Alumni Research Foundation, priority 1989, dated 1992):

How the values were obtained:
Ah receptor [1] = target: T1, Ah receptor (Mus musculus, UniProt P30561); assay: Competitive binding assay of TCDD against [125I] radioligand for Ah receptor; parameters: species or system C57BL/6J mice
T1 construct: full-length receptor (C57BL/6J carries Ahr b-1 allele)
T1 sequence (P30561 10-848): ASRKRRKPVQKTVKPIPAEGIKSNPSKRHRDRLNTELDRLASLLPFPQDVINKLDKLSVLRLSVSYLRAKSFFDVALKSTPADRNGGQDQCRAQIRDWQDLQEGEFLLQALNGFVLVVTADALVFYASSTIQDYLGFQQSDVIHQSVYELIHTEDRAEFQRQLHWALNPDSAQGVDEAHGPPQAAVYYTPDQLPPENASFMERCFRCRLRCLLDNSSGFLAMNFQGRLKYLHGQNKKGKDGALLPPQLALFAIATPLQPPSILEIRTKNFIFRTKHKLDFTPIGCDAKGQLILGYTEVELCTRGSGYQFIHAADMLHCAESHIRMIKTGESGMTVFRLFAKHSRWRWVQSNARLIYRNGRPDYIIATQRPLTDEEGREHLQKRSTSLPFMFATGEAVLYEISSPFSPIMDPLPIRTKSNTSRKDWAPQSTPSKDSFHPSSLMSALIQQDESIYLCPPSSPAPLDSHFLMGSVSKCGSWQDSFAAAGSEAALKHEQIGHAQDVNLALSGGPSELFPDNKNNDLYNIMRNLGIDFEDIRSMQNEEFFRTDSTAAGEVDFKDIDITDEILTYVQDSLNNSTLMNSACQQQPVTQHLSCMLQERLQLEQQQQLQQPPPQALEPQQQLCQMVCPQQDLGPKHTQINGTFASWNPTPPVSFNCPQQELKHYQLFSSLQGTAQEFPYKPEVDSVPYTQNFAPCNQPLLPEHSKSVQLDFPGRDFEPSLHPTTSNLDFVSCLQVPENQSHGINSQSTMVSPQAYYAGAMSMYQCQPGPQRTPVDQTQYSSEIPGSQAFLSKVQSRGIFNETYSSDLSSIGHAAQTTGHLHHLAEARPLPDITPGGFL
Protocol: C57BL/6J mice were purchased from The Jackson Laboratory, Bar Harbor, Me., and bred in our laboratory. See generally A. Poland et al., 261 J. Biol. Chem. 6352-65 (May 15, 1986) (not prior art). One-hundred adult male and female mice were killed by cervical dislocation, their livers removed, rinsed with ice cold KCl (150 mM), homogenized in 9 vol of MSSENG buffer, and centrifuged at 10,000 xg for 20 min at 4° C. The post-mitochondrial supernatant was carefully removed to avoid contamination by the surface lipid layer, and subjected to centrifugation at 105,000 x g. The supernatant (approx. 10 mg protein/ml) was separated from surface lipids and the microsomal pellet, and stored at -80° C. until processed further.
The frozen cytosolic fraction was thawed, and placed in an ice bath with slow stirring. A saturated solution of ammonium sulfate in MEN buffer was added to the cytosolic preparation, to a final concentration of 40%, over a period of 30 min, and stirred for an additional 30 min. The solution was centrifuged at 10,000 x g for 20 min, the supernatant fraction removed, slowly brought to an ammonium sulfate concentration of 55%, stirred for an additional 30 min, centrifuged at 10,000xg, and the supernatant discarded. The 40-55% ammonium sulfate precipitate was resuspended in 55% ammonium sulfate in MN, and aliquots equivalent to 0.5 g wet weight of liver (15 mg protein) were placed in 12×75 mm borosilicate tubes (VWR Scientific, San Francisco, Calif.), and spun at 5000xg. […]
The assay was terminated by the addition of a 0.5 ml of suspension of charcoal/gelatin (3%/0.3%) in MN buffer with vigorous stirring on a vortex mixer for 3 sec., and incubated for 10 min at 4° C. […] A one ml aliquot of the supernatant fraction of each tube was transferred to 12×75 […] polypropylene tubes (VWR Scientific, San Francisco, CA), and the Ah bound radioligand quantified in a MINAXI Series-5000 gamma scintillation counter (United Technologies/Packard Instrument Co., Downer Grove, Ill.). […]

Ah receptor [2] = target: T1, Ah receptor; assay: Radioligand stock solution aged 120 days, tested in the Ah receptor binding assay; parameters: species or system C57BL/6J mice; conditions: stock solution of radioligand 120 days after its synthesis
Description: [^125 I]decays to tellurium with a half-life of 60 days. Thus, radiodecay could produce unlabelled 2,3-dibromodibenzo-p-dioxin in the radioligand stock solution. We tested whether radioligand decay products might compete for receptor binding and diminish radioligand binding.

SMILES | minimal detectable amount of TCDD (Ah receptor [1]; 1 ml assay) [pg] | minimal detectable concentration of TCDD (Ah receptor [1]; 1 ml assay, statistical analysis of standard curve of specifically bound radioligand v. log concentration of competing TCDD) [pM] | minimal detectable amount of TCDD (Ah receptor [1]; total assay volume reduced to 0.25 ml) [pg] | deviation in the quality control parameters compared to freshly prepared radioligand (Ah receptor [2])
Clc1cc2c(cc1Cl)Oc1cc(Cl)c(Cl)cc1O2 [TCDD, 2,3,7,8-tetrachloro-dibenzo-p-dioxin] | 3.2 | 10 | 0.8 | –
Brc1cc2c(cc1Br)Oc1cc([125I])ccc1O2 [radioligand, [^125 I]-2-iodo-7,8-dibromo-dibenzo-p-dioxin] | – | – | – | no significant deviation
